Experimental data reported in patent US4999363A, “Tricyclic compounds” (priority 1988, dated 1991).

Assays:
[1] = molecular target: T1, TXA2 /prostaglandin H2 receptor (Cavia porcellus, UniProt A0A286Y4I8); experiment: Anti-aggregatory effect: inhibition of platelet aggregation induced by U-46619 (TXA2-antagonizing action); format: cell-based, guinea pig (Hartley strain); conditions: minimum concentration inhibiting aggregation by 30% or more; U-46619 0.5-1 μM; guinea pig PRP
T1 construct: platelet rich plasma (PRP) was obtained; endogenous in cells; host or cells: guinea pig (Hartley) platelets in platelet rich plasma
T1 sequence (A0A286Y4I8 1-347): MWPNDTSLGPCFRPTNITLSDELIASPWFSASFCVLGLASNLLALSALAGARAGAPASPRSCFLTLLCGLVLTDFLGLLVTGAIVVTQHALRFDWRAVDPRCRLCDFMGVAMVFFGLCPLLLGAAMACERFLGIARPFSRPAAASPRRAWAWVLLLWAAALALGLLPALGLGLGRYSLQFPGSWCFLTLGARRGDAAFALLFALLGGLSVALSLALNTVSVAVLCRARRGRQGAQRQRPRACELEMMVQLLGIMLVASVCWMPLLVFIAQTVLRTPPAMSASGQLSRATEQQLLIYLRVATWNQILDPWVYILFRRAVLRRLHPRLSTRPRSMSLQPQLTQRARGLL
Method: TEST ON ANTI A[…] (TXA2 -AN[…])
Using guinea pig platelet, influence of the compounds on platelet aggregation induced by U-46619 (9,11-dideoxy-9α,11a-methanoepoxyprostaglandin F2α; manufactured by Cayman Chemical Co., Ltd.) which was a TXA2 /prostaglandin H2 receptor stimulant was examined.
Male guinea pig (Hartley strain; body weight, 300 to 600 g) was anesthesized by intraperitoneal administration of sodium pentobarbital (30 mg/kg) and blood was collected from the descending aorta of the abdomen with a 1/10 volume of 3.8% trisodium citrate. By centrifugation (KC-70: manufactured by Kubota Co., Ltd.) at 800 rpm for 15 minutes, platelet rich plasma (PRP) was obtained, Platelet aggregation induced by U-46619 (0.5-1 μM) was determined by photometry [Born, G.V.R. et al., Nature (London), 194, 927-929 (1962)]. A test compound was pretreated for 3 minutes and the ability to inhibit aggregation was determined. The minimum concentration which inhibits platelet aggregation by 30% or more was defined as the minimum effective concentration (MEC) of the test compound.

dd strain male mice = experiment: Acute toxicity test (MLD, mortality for seven days); format: in vivo; conditions: minimum lethal dose, 7 days; for Acute Toxicity (MLD) ip: intraperitoneal
Method: Using three dd strain male mice weighing 20±1 g, a test compound was orally (po; 300 mg/kg) or intraperitoneally (ip; 100 mg/kg) administered. MLD (the minimum lethal dose) was determined by observing the mortality for seven days after administration.

TXA2 biosynthesis = TXA2 biosynthesis inhibitory test (bovine platelet microsome, TXB2 by radioimmunoassay); format: biochemical; conditions: in 10 μM
Method: TXA2 BIOSYNTHESIS INHIBITORY TEST
After a mixture of 70 μl (40 μg of protein, 100 mM Tris-hydrochloridebuffer, pH 7.4) of bovine platelet microsome and 10 μl (10% methanol-containing 100 mM Tris-hydrochloride buffer) of a test compound solution was settled at 0° C. for 5 minutes, 20 μl of prostaglandin H2 solution (0.1 nmol, in Tris-hydrochloride buffer described above containing 20% acetone) as substrate was added to the mixture. Five minutes after, 2.9 ml of stopping solution [100 mM, Trishydrochloride buffer containing 0.1 μM of OKY-1581; Tromb. Res. 23, 145 (1981)] was added to stop the reaction.
TXA2 was unstable in the buffer solution, and nonenzymatically converted to TXB2. An amount of thromboxane B2 (TXB2) formed in the reaction solution was determined by radioimmunoassay [F. A. Fitzpatrick et al., Methods in Enzymology, 86, 286 (1982)]. An inhibition rate of the test compound was calculated according to the following equation. [formula]
The amount of TXB2 formed in control refers to a value obtained when the same reaction was carried out, using a solvent containing no test compound.
The amount of TXB2 formed in blank refers to a value obtained when the reaction was carried out in the system in which the stopping solution was added prior to adding substrate.

[2] = system: thrombus formation on cotton thread; experiment: Antithrombotic activity: thrombus formation on cotton thread in extracorporeal circulation path; format: in vivo, Wistar male rats; conditions: oral, rat, 2 hours prior, mean ± standard error, control 25.9 ± 1.2
Method: Effect of a test compound on thrombus formation on cotton thread which was kept in an extracorporeal circulation path for the artery and vein in anesthesized rats was examined in a manner similar to the method of Smith et al. [Br. J. Pharmacol., 77, 29 (1982)].
Wistar male rats weighing 250 to 400 g were anesthesized by intraperitoneal administration of sodium pentobarbital at a dose of 30 mg/kg and an extracorporeal circulation path made of a polyethylene tube having a length of 30 cm extending from the right carotid artery to the left jugular vein was installed. Cotton thread (No. 30) having a length of 5.5 cm was inserted into the circulation path and a weight of thrombus formed on the cotton thread during blood perfusion for 15 minutes was measured. Similar operations were performed twice and the total weight of thrombus formed by the two blood perfusions was shown as the weight of thrombus. […]

O=C(O)c1ccc2c(c1)C(=NCc1cccnc1)c1ccccc1CO2 [Compound 25b, 11-[(3-Pyridyl)methyl]imino-6,11-dihydrodibenz[b,e]oxepin-2-carboxylic acid]
TXA2 Antagonizing Activity (MEC) [1]: 1 µg/mL
Acute Toxicity (MLD) ip (dd strain male mice): > 100 mg/kg
Acute Toxicity (MLD) po (dd strain male mice): > 300 mg/kg
TXA2 Biosynthesis Inhibitory Activity Inhibition Rate (TXA2 biosynthesis): 100%

O=C(O)c1ccc2c(c1)C(SCc1cccnc1)c1ccccc1CO2 (stereo not drawn) [Compound 14b, 11-[(3-Pyridyl)methyl]thio-6,11-dihydrodibenz[b,e]oxepin-2-carboxylic acid]
TXA2 Antagonizing Activity (MEC) [1]: 3 µg/mL
Acute Toxicity (MLD) ip (dd strain male mice): > 100 mg/kg
Acute Toxicity (MLD) po (dd strain male mice): > 300 mg/kg
TXA2 Biosynthesis Inhibitory Activity Inhibition Rate (TXA2 biosynthesis): 100%

O=C(O)Cc1ccc(CCNS(=O)(=O)c2ccc(Cl)cc2)cc1 [BM13505, reference compound]
TXA2 Antagonizing Activity (MEC) [1]: 0.1 µg/mL
Acute Toxicity (MLD) ip (dd strain male mice): > 100 mg/kg
Acute Toxicity (MLD) po (dd strain male mice): > 300 mg/kg
TXA2 Biosynthesis Inhibitory Activity Inhibition Rate (TXA2 biosynthesis): 8%

O=C(O)COc1ccc(CCNS(=O)(=O)c2ccccc2)cc1 [BM13177]
Weight of Thrombus ([2]; 30 mg/kg): 24.8 ± 1.8 mg
Weight of Thrombus ([2]; 100 mg/kg, **P < 0.01): 18.9 ± 1.8 mg

C/C(=C\c1ccc(Cc2cccnc2)cc1)C(=O)O [OKY 1581, reference compound]
TXA2 Antagonizing Activity (MEC) [1]: 30 µg/mL
Acute Toxicity (MLD) ip (dd strain male mice): > 100 mg/kg
Acute Toxicity (MLD) po (dd strain male mice): > 300 mg/kg
TXA2 Biosynthesis Inhibitory Activity Inhibition Rate (TXA2 biosynthesis): 100%

COc1ccc2c(c1)ncn2C/C=C1\c2ccccc2COc2ccc(C(=O)O)cc21 [Compound E-61b, (E)-11-[2-(5-Methoxy-1-benzimidazolyl)ethylidene]-6,11-dihydrodibenz[b,e]oxepin-2-carboxylic acid]
TXA2 Antagonizing Activity (MEC) [1]: 0.1 µg/mL
TXA2 Biosynthesis Inhibitory Activity Inhibition Rate (TXA2 biosynthesis): 1%

O=C(O)c1ccc2c(c1)C(NCc1cccnc1)c1ccccc1CO2 (stereo not drawn) [Compound 9c, 11-[(3-Pyridyl)methyl]amino-6,11-dihydrodibenz[b,e]oxepin-2-carboxylic acid]
TXA2 Antagonizing Activity (MEC) [1]: 30 µg/mL
Acute Toxicity (MLD) ip (dd strain male mice): > 100 mg/kg
Acute Toxicity (MLD) po (dd strain male mice): > 300 mg/kg
TXA2 Biosynthesis Inhibitory Activity Inhibition Rate (TXA2 biosynthesis): 100%

Cn1cnnc1SC/C=C1\c2ccccc2COc2ccc(C(=O)O)cc21 [Compound E-156b, (E)-11-[2-[(4-Methyl-4H-1,2,4-triazol-3-yl)thio]ethylidene]-6,11-dihydrodibenz[b,e]oxepin-2-carboxylic acid]
TXA2 Antagonizing Activity (MEC) [1]: 1.0 µg/mL
Acute Toxicity (MLD) ip (dd strain male mice): > 100 mg/kg
Acute Toxicity (MLD) po (dd strain male mice): > 300 mg/kg
TXA2 Biosynthesis Inhibitory Activity Inhibition Rate (TXA2 biosynthesis): -10%

COc1cc2ncn(C/C=C3\c4ccccc4COc4ccc(C(=O)O)cc43)c2cc1OC [Compound E-101b, (E)-11-[2-(5,6-Dimethoxy-1-benzimidazolyl)ethylidene]-6,11-dihydrodibenz[b,e]oxepin-2-carboxylic acid]
TXA2 Antagonizing Activity (MEC) [1]: 0.3 µg/mL
Acute Toxicity (MLD) ip (dd strain male mice): > 100 mg/kg
Acute Toxicity (MLD) po (dd strain male mice): > 300 mg/kg
TXA2 Biosynthesis Inhibitory Activity Inhibition Rate (TXA2 biosynthesis): 17%

O=C(O)c1ccc2c(c1)/C(=C/Cn1ccnc1)c1ccccc1CO2 [Compound E-37b', (E)-11-[2-(1-imidazolyl)ethylidene]-6,11-dihydrodibenz[b,e]oxepin-2-carboxylic acid 0.2 hydrate]
TXA2 Antagonizing Activity (MEC) [1]: 3 µg/mL
Acute Toxicity (MLD) ip (dd strain male mice): > 100 mg/kg
Acute Toxicity (MLD) po (dd strain male mice): > 300 mg/kg
TXA2 Biosynthesis Inhibitory Activity Inhibition Rate (TXA2 biosynthesis): 94%

CN(C)CC/C=C1/c2ccccc2COc2ccc(CC(=O)O)cc21 [KW 4679, reference compound]
TXA2 Antagonizing Activity (MEC) [1]: 30 µg/mL
Acute Toxicity (MLD) ip (dd strain male mice): > 100 mg/kg
Acute Toxicity (MLD) po (dd strain male mice): > 300 mg/kg
TXA2 Biosynthesis Inhibitory Activity Inhibition Rate (TXA2 biosynthesis): 1%

COc1ccc2ncn(C/C=C3\c4ccccc4COc4ccc(C(=O)O)cc43)c2c1 [Compound E-62b, (E)-11-[2-(6-Methoxy-1-benzimidazolyl)ethylidene]-6,11-dihydrodibenz[b,e]oxepin-2-carboxylic acid]
TXA2 Antagonizing Activity (MEC) [1]: 1 µg/mL
TXA2 Biosynthesis Inhibitory Activity Inhibition Rate (TXA2 biosynthesis): 11%
